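The concentration for 50% growth inhibition is given as GI50. Definition used: TGI = concentration required for complete inhibition of growth.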
Assays:
Assay in all cases: growth of human tumour cells (NCI), 384-well format
A498 renal = tested on: A498 renal
SNB-19 CNS = tested on: SNB-19 CNS
PC-3 prostate = tested on: PC-3 prostate
OVCAR-8 ovarian = tested on: OVCAR-8 ovarian
MOLT-4 leukemia = tested on: MOLT-4 leukemia
SF-539 CNS = tested on: SF-539 CNS
HS 578T breast = tested on: HS 578T breast
SK-OV-3 ovarian = tested on: SK-OV-3 ovarian
MDA-MB-435 melanoma = tested on: MDA-MB-435 melanoma
DU-145 prostate = tested on: DU-145 prostate
SNB-75 CNS = tested on: SNB-75 CNS
SK-MEL-5 melanoma = tested on: SK-MEL-5 melanoma
MALME-3M melanoma = tested on: MALME-3M melanoma
NCI-H460 NSCLC = tested on: NCI-H460 NSCLC
LOX IMVI melanoma = tested on: LOX IMVI melanoma
TK-10 renal = tested on: TK-10 renal
K-562 leukemia = tested on: K-562 leukemia
ACHN renal = tested on: ACHN renal
RPMI-8226 leukemia = tested on: RPMI-8226 leukemia
SK-MEL-28 melanoma = tested on: SK-MEL-28 melanoma
UACC-257 melanoma = tested on: UACC-257 melanoma
KM12 colon = tested on: KM12 colon
COLO 205 colon = tested on: COLO 205 colon
U251 glioblastoma = tested on: U251 glioblastoma
UO-31 renal = tested on: UO-31 renal
NCI-H322M lung = tested on: NCI-H322M lung
MDA-MB-231 breast = tested on: MDA-MB-231 breast
HCC-2998 colon = tested on: HCC-2998 colon
OVCAR-3 ovarian = tested on: OVCAR-3 ovarian
EKVX NSCLC = tested on: EKVX NSCLC
MDA-MB-468 breast = tested on: MDA-MB-468 breast
T-47D breast = tested on: T-47D breast
HOP-62 NSCLC = tested on: HOP-62 NSCLC
NCI/ADR-RES ovarian = tested on: NCI/ADR-RES ovarian
IGROV1 ovarian = tested on: IGROV1 ovarian
SN12C renal = tested on: SN12C renal
NCI-H23 lung = tested on: NCI-H23 lung
BT-549 breast = tested on: BT-549 breast
SF-268 CNS = tested on: SF-268 CNS
SF-295 CNS = tested on: SF-295 CNS
M14 melanoma = tested on: M14 melanoma
OVCAR-4 ovarian = tested on: OVCAR-4 ovarian
HT29 colon = tested on: HT29 colon
A549 NSCLC = tested on: A549 NSCLC
CCRF-CEM leukemia = tested on: CCRF-CEM leukemia
786-0 renal = tested on: 786-0 renal
MCF7 breast = tested on: MCF7 breast
SR leukemia = tested on: SR leukemia
HOP-92 NSCLC = tested on: HOP-92 NSCLC
RXF 393 renal = tested on: RXF 393 renal
HCT-15 colon = tested on: HCT-15 colon
UACC-62 melanoma = tested on: UACC-62 melanoma
NCI-H522 lung = tested on: NCI-H522 lung
SW-620 colon = tested on: SW-620 colon
OVCAR-5 ovarian = tested on: OVCAR-5 ovarian
HL-60(TB) leukemia = tested on: HL-60(TB) leukemia
CAKI-1 renal = tested on: CAKI-1 renal
NCI-H226 lung = tested on: NCI-H226 lung

`Nc1ncnc2c1c(-c1cccc(OCc3ccccc3)c1)cn2C1CC(CN2CCC2)C1` (stereo unspecified) gave a GI50 (A498 renal) of 1.49 µM, a TGI (A498 renal) of 2.83 µM and a GI50 (SNB-19 CNS) of 2.53 µM. It also gave a TGI (SNB-19 CNS) of 7.28 µM, a GI50 (PC-3 prostate) of 1.8 µM and a TGI (PC-3 prostate) of 3.46 µM. It also gave a GI50 (OVCAR-8 ovarian) of 1.61 µM, a TGI (OVCAR-8 ovarian) of 3.01 µM and a GI50 (MOLT-4 leukemia) of 1.77 µM. It also gave a TGI (MOLT-4 leukemia) of 3.16 µM, a GI50 (SF-539 CNS) of 1.76 µM and a TGI (SF-539 CNS) of 3.15 µM. The GI50 (HS 578T breast) was 1.82 µM, the TGI (HS 578T breast) was 3.23 µM and the GI50 (SK-OV-3 ovarian) was 1.75 µM. It also gave a TGI (SK-OV-3 ovarian) of 3.16 µM, a GI50 (MDA-MB-435 melanoma) of 1.28 µM and a TGI (MDA-MB-435 melanoma) of 2.57 µM. It also gave a GI50 (DU-145 prostate) of 2.65 µM, a TGI (DU-145 prostate) of 11 µM and a GI50 (SNB-75 CNS) of 1.92 µM. For the same compound, the TGI (SNB-75 CNS) was 3.52 µM, the GI50 (SK-MEL-5 melanoma) was 0.704 µM and the TGI (SK-MEL-5 melanoma) was 2 µM. It also gave a GI50 (MALME-3M melanoma) of 1.06 µM, a TGI (MALME-3M melanoma) of 2.25 µM and a GI50 (NCI-H460 NSCLC) of 1.34 µM. The TGI (NCI-H460 NSCLC) was 2.69 µM, the GI50 (LOX IMVI melanoma) was 1.61 µM and the TGI (LOX IMVI melanoma) was 2.97 µM. For the same compound, the GI50 (TK-10 renal) was 1.61 µM, the TGI (TK-10 renal) was 3.24 µM and the GI50 (K-562 leukemia) was 1.69 µM. The TGI (K-562 leukemia) was 3.1 µM, the GI50 (ACHN renal) was 1.91 µM and the TGI (ACHN renal) was 3.71 µM. The GI50 (RPMI-8226 leukemia) was 1.83 µM, the TGI (RPMI-8226 leukemia) was 3.23 µM and the GI50 (SK-MEL-28 melanoma) was 1.43 µM. For the same compound, the TGI (SK-MEL-28 melanoma) was 2.74 µM, the GI50 (UACC-257 melanoma) was 1.13 µM and the TGI (UACC-257 melanoma) was 2.35 µM. The GI50 (KM12 colon) was 1.82 µM, the TGI (KM12 colon) was 3.76 µM and the GI50 (COLO 205 colon) was 0.327 µM. For the same compound, the TGI (COLO 205 colon) was 1.44 µM, the GI50 (U251 glioblastoma) was 1.87 µM and the TGI (U251 glioblastoma) was 3.39 µM. For the same compound, the GI50 (UO-31 renal) was 1.61 µM, the TGI (UO-31 renal) was 3.02 µM and the GI50 (NCI-H322M lung) was 1.65 µM. The TGI (NCI-H322M lung) was 4.49 µM, the GI50 (MDA-MB-231 breast) was 1.66 µM and the TGI (MDA-MB-231 breast) was 3.34 µM. For the same compound, the GI50 (HCC-2998 colon) was 1.4 µM, the TGI (HCC-2998 colon) was 2.72 µM and the GI50 (OVCAR-3 ovarian) was 1.76 µM. The TGI (OVCAR-3 ovarian) was 3.45 µM, the GI50 (EKVX NSCLC) was 1.41 µM and the TGI (EKVX NSCLC) was 3.1 µM. The GI50 (MDA-MB-468 breast) was 1.33 µM, the TGI (MDA-MB-468 breast) was 2.63 µM and the GI50 (T-47D breast) was 1.49 µM. For the same compound, the TGI (T-47D breast) was 2.9 µM, the GI50 (HOP-62 NSCLC) was 1.82 µM and the TGI (HOP-62 NSCLC) was 3.25 µM. It also gave a GI50 (NCI/ADR-RES ovarian) of 1.76 µM, a TGI (NCI/ADR-RES ovarian) of 3.42 µM and a GI50 (IGROV1 ovarian) of 2.18 µM. The TGI (IGROV1 ovarian) was 4.87 µM, the GI50 (SN12C renal) was 2.31 µM and the TGI (SN12C renal) was 5.8 µM. It also gave a GI50 (NCI-H23 lung) of 1.1 µM, a TGI (NCI-H23 lung) of 2.49 µM and a GI50 (BT-549 breast) of 1.37 µM. The TGI (BT-549 breast) was 2.68 µM, the GI50 (SF-268 CNS) was 1.81 µM and the TGI (SF-268 CNS) was 3.23 µM. It also gave a GI50 (SF-295 CNS) of 1.89 µM, a TGI (SF-295 CNS) of 3.31 µM and a GI50 (M14 melanoma) of 1.62 µM. It also gave a TGI (M14 melanoma) of 2.98 µM, a GI50 (OVCAR-4 ovarian) of 1.89 µM and a TGI (OVCAR-4 ovarian) of 4.04 µM. The GI50 (HT29 colon) was 0.336 µM, the TGI (HT29 colon) was 1.72 µM and the GI50 (A549 NSCLC) was 1.55 µM. It also gave a TGI (A549 NSCLC) of 3.07 µM, a GI50 (CCRF-CEM leukemia) of 2.08 µM and a TGI (CCRF-CEM leukemia) of 3.52 µM. For the same compound, the GI50 ([…]-0 renal) was 1.61 µM, the TGI (786-0 renal) was 2.97 µM and the GI50 (MCF7 breast) was 0.36 µM. It also gave a TGI (MCF7 breast) of 1.68 µM, a GI50 (SR leukemia) of 1.65 µM and a TGI (SR leukemia) of 3.02 µM. The GI50 (HOP-92 NSCLC) was 1.14 µM, the TGI (HOP-92 NSCLC) was 2.36 µM and the GI50 (RXF 393 renal) was 1.59 µM. For the same compound, the TGI (RXF 393 renal) was 2.97 µM, the GI50 (HCT-15 colon) was 1.28 µM and the TGI (HCT-15 colon) was 2.59 µM. The GI50 (UACC-62 melanoma) was 1.51 µM, the TGI (UACC-62 melanoma) was 2.84 µM and the GI50 (NCI-H522 lung) was 1.72 µM. The TGI (NCI-H522 lung) was 3.12 µM, the GI50 (SW-620 colon) was 1.33 µM and the TGI (SW-620 colon) was 2.63 µM. It also gave a GI50 (OVCAR-5 ovarian) of 1.3 µM, a TGI (OVCAR-5 ovarian) of 2.86 µM and a GI50 (HL-60(TB) leukemia) of 0.182 µM. It also gave a TGI (HL-60(TB) leukemia) of 1.03 µM, a GI50 (CAKI-1 renal) of 1.65 µM and a TGI (CAKI-1 renal) of 3.22 µM. For the same compound, the GI50 (NCI-H226 lung) was 1.19 µM and the TGI (NCI-H226 lung) was 2.96 µM.

Reference: PubChem BioAssay (NCI)
